Source: patent US20080269343A1, “GALENIC FORMULATIONS OF ORGANIC COMPOUNDS” (priority 2004, published 2008)

Legend:
[1] = Ranges of arithmetic mean plasma pharmacokinetic parameters provided by the 300 mg solid oral dosage form (summary of the studies); assay type: in vivo; conditions: human, range of study means
Description: (§1) For example, the present invention provides a solid oral dosage form comprising about 300 mg of aliskiren free base, or a respective amount of a pharmaceutically acceptable salt thereof, and a carrier medium, said dosage form providing an arithmetic mean maximum plasma concentration of aliskiren ranging from about 186 to about 394 ng/mL between about 0.25 and about 6 hours following administration of a single dosage of said dosage form.
as §1, with “Furthermore,” for “For example,”, “mg” for “mg of”, “AUC0-96” for “maximum plasma concentration”, “1480” for “186”, “1859 ng·h/mL” for “394 ng/mL between about 0.25 and about 6 hours”, “form. […]” for “form.”
The above description fully discloses the invention including preferred embodiments thereof. […] Arithmetic means for Cmax are calculated using the actual time points when the Cmax is observed whereas for the mean concentration versus time plots the nominal time values are employed.

[2] = Hygroscopicity of the drug substance; assay type: physicochemical
[3] = Steady-state pharmacokinetics of aliskiren 300 mg alone, hydrochlorothiazide interaction study, Day 15 (Example 7); assay type: in vivo, human; conditions: 300 mg daily, Day 15, healthy volunteers N 22; for AUC / Cmax / Tmax: both sexes, human, in vivo, oral, 300 mg
Description: The study employed was an open-label, two-period, multiple dose design to evaluate the pharmacokinetic drug-drug interaction between hydrochlorothiazide (HCTZ) and aliskiren when given alone or in combination to healthy volunteers. After screening, a total of 22 healthy male and female volunteers were enrolled into the study. The subjects were admitted to the study center at least 12 hours prior to the initial dosing of HCTZ for baseline evaluation. If subjects met all eligibility criteria at baseline, they were randomized into the study and confined to the clinic until study completion. All study medications were taken under fasted conditions. The subjects remained in bed for at least 4 hours after dosing on PK sampling days. The study was completed with the end of study evaluations on Day 20, after the last blood sample was collected.
In period 1 (study Days 1-4), subjects received a single 25 mg daily dose of HCTZ. Period 1 was followed by a 4 day washout period, study Days 5-8. In period 2 (study Days 9-19), subjects received 300 mg of aliskiren once a day for a total of 11 days (Days 9-19), with a single 25 mg dose of HCTZ co-administered for 4 days (Days 16-19).
Pharmacokinetic blood sampling for aliskiren alone occurred on study Day 15 up to 24 hours post-dose (5-mL blood samples were collected into lithium heparin tubes on Day 15 of the study at pre-dose, 0.5, 1, 2, 3, 4, 6, 8, 12, 16 and 24 hours after dosing).

AUC ([1]; about 300 mg every 24 hours, steady state, read-out: arithmetic mean AUC0-τ of aliskiren): 1670 to 2520 ng·h/mL
AUC(0-t) ([1]; single dosage of about 300 mg free base, read-out: arithmetic mean AUC0-96 of aliskiren): 1480 to 1860 ng·h/mL
hygroscopicity [2]: highly hygroscopic
Cmin^SS ([3]; Geometric Mean): 32.5 ng/mL
AUCτ ([3]; Max): 3801 ng·h/mL
Cmax^SS ([3]; Max): 872.0 ng/mL
Cmin^SS ([3]; Max): 56.5 ng/mL
tmax^SS ([3]; Max): 6.00 h
Cmin^SS ([3]; Median): 35.4 ng/mL
AUCτ ([3]; Min): 512 ng·h/mL
Cmax^SS ([3]; Min): 27.3 ng/mL
Cmin^SS ([3]; Min): 13.4 ng/mL
tmax^SS ([3]; Min): 0.50 h
Cmin^SS ([3]; arithmetic mean): 35.0 ng/mL
AUC ([3]; Geometric Mean): 2070 ng·h/mL
Cmax ([3]; Geometric Mean): 354 ng/mL
Tmax ([3]; Geometric Mean): 1.84 h
AUC ([3]; Median): 2320 ng·h/mL
Cmax ([3]; Median): 406 ng/mL
Tmax ([3]; Median): 2.24 h
AUC ([3]; arithmetic mean): 2310 ng·h/mL
Cmax ([3]; arithmetic mean): 425 ng/mL
Tmax ([3]; arithmetic mean): 2.23 h
Structure (SMILES): COCCCOc1cc(C[C@@H](C[C@H](N)[C@@H](O)C[C@H](C(=O)NCC(C)(C)C(N)=O)C(C)C)C(C)C)ccc1OC [aliskiren, 2(S),4(S),5(S),7(S)—N-(3-amino-2,2-dimethyl-3-oxopropyl)-2,7-di(1-methylethyl)-4-hydroxy-5-amino-8-[4-methoxy-3-(3-methoxy-propoxy)phenyl]-octanamide]
